Consider 16 compounds from US11596716B2, “Compounds and matrices for use in bone growth and repair” (Human BioMolecular Research Institute, priority 2013, dated 2023).

Where two headings read alike, the source gives them in different places.

For assay [1], the system named is Wnt transcription. Description: WNT transcriptional reporter assay (Super(8×)TOPflash luciferase, HEK293T cells). It is filed as cell-based. Conditions: Wnt3A-expressing vector, 20 hrs, relative to cells treated with DMSO alone, read-out: Wnt transcription potency. The source says: Commercially available Super(8×)TOPflash vector driven by a (7×) TCF-firefly luciferase response element was transiently transfected into HEK293T cells, together with a TK-driven Renilla luciferase plasmid as an internal control to normalize the luminescence signal and a Wnt3A-expressing vector as the source of pathway activation. HEK293T cells were transfected with plasmids in DMEM plus 10% fetal bovine serum (FBS) for 8 hr, replated to 96-well plates in DMEM plus 10% FBS followed by treatment with compounds (1.6 nM to 5 M) (DMSO final concentration is 0.5%) for 20 hrs. Firefly and Renilla luciferase activities were measured and normalized by the Renilla luciferase values.
Background: In a reporter assay the amount or activity of a reporter protein is the signal.

Assay [2] relates to C2C12 cells. Put plainly: Alkaline Phosphatase (ALP) functional activity assay in C2C12 cells. It counts as cell-based, Mouse. Particulars: normalized to DMSO treatment; for activation at 0.5 µM: Mus musculus, C2C12, 144 h. As to the method:
Alkaline Phosphatase (ALP) Functional Activity Assay: C2C12 cells were plated into 12-well plates with 7,000 cells/well in 1 mL growth media. […] 1, 2, 3, or 4 in 0.1% DMSO was added (500 nM). Half the media was exchanged with fresh media containing compound every 48 hrs. After 6 days, media was removed, ALP Lysis Buffer (10 mM Tris-HCl pH 8.0, 1 mM MgCl2, and 1% Triton X100) added, and cell lysate obtained (10 min incubation at RT) by centrifugation (5 min at 3500× g at 4° C.). Para-nitrophenol phosphate (pNPP) (2 mg/mL) was incubated with 50 μl cell lysate (10 mins, 37° C.). After addition of […] 0.02 N NaOH, absorbance OD405 was measured. Protein concentration was determined by Bradford protein assay. Results of ALP activity were plotted as nM pNP hydrolyzed/mg total protein. After normalizing control samples (i.e., DMSO-treated samples) to one-fold, the fold-changes were plotted to indicate the relative ALP activity. […] This protocol was applied to hMSC and E15 cells as well.

Assay [3] has as its system hMSCs. Description: qPCR of target gene mRNA expression in hMSCs. It counts as cell-based, human. Particulars: hMSCs, comparison with compound 3 and calcium phosphate ceramic. The procedure:
qPCR detection of osteogenic markers: Cells were cultured with compound in the presence or absence of matrix as described above, but using 96-well plate format. Total RNA was extracted from cells (as above) using Trizol. cDNA was made using 750 ng of total RNA with Bio-Rad iscript kit and was diluted 20-fold before being used for qPCR. qPCR was conducted under the following conditions: 95° C., 2 min; 95° C., 10 s and 60° C., 45 s for 40 cycles; 60° C. for 71 cycles for melt curve. qPCR results were analyzed by the ΔΔCt method. 18s rRNA was used as an internal standard. This protocol was applied to hMSC and E15 cells.
Runx2 and BMP-2 are osteogenic markers; Axin2, Wnt3a, and Sox 9 are Wnt-inducible gene markers.
The assay for mRNA expression followed the same procedure with hMSCs as described for C2C12 cells (Example 7).

Where [4] appears, read: compounds of Formula II or IV, absence of matrix.
Where [5] appears, read: compounds of Formula II or IV, presence of calcium phosphate matrix.
[6] abbreviates: compounds of Formula VI, absence of matrix.
Setting [7] is: compounds of Formula VI, presence of calcium phosphate matrix.

Consider `Cc1nc2c(-c3ccccc3)cnn2c(N2CCN(C)CC2)c1C` [Compound 31, 3-phenyl-5,6-dimethyl-7-(N-methyl-N-piperazinyl)-pyrazolo[1,5-a]pyrimidine], for which the EC50 in assay [1] was in the range of 15 to 40 nM. Moreover, the “ALP activity −matrix” value in assay [2] (setting [4]) is on record as “+ (5-50%)”. Also, the “ALP activity +matrix” value in assay [2] (setting [5]) is listed as “+ (5-50%)”.
As for `Cc1nc2c(-c3ccccc3)cnn2c(NCCC(C)C)c1C` [Compound 32, 3-phenyl-5,6-dimethyl-7-[N-(3-methylbutyl)amino]-pyrazolo[1,5-a]pyrimidine], the EC50 in assay [1] (Homo sapiens, HEK-293T) was more than 40 nM. The activation at 0.5 µM in assay [2] (setting [4]) and in assay [2] (setting [5]) was less than 5% in each case.
For `Cc1ccc(N[C@H]2C[C@H](C)N(C(=O)C(C)C)c3ccc(C)cc32)cc1` (relative stereo) [Compound 15, trans-1-(2-propylcarbonyl)-2,6-dimethyl-4-(4-methylphenylamino)-1,2,3,4-tetrahydroquinoline], the results for the activation at 0.5 µM in assay [2] (setting [4]) and in assay [2] (setting [5]) were less than 5% and 50 to 100%, respectively.
Take `CC(=O)N1c2ccc(C)cc2[C@@H](Nc2ccc(C)cc2)C[C@@H]1C` (relative stereo) [Compound 13, trans-1-acetyl-2,6-dimethyl-N-(p-methylphenyl)-1,2,3,4-tetrahydroquinolin-4-amine]: the activation at 0.5 µM is more than 100% in assay [2] (setting [4]) and less than 5% in assay [2] (setting [5]).
For the compound `CC(=O)N1c2ccc(C)cc2[C@@H](N(C(C)=O)c2ccc(C)cc2)C[C@@H]1C` (relative stereo) [Compound 27, trans-1-acetyl-2,6-dimethyl-N-(p-methylphenyl)-N-acetyl-1,2,3,4-tetrahydroquinolin-4-amine], the activation at 0.5 µM in assay [2] (setting [4]) and in assay [2] (setting [5]) was 5 to 50% throughout.
`Cc1ccc(N[C@H]2C[C@H](C)Nc3ccc(C)cc32)cc1` (relative stereo) [Compound 6, trans-2,6-dimethyl-N-(p-methylphenyl)-1,2,3,4-tetrahydroquinolin-4-amine]: the figures for the activation at 0.5 µM in assay [2] (setting [4]) and in assay [2] (setting [5]) were 50 to 100% and less than 5%, respectively.
For `COc1cc(C=CC(=O)C2CCCC(=Cc3ccc(O)c(OC)c3)C2=O)ccc1O` (centres unmarked) [Compound 58, 2-(4-Hydroxy-3-methoxybenzylidene)-6-(3-(4-hydroxy-3-methoxyphenyl)acryloyl)cyclohexanone], the activation at 0.5 µM in assay [2] (setting [6]) and in assay [2] (setting [7]) was 5 to 50% throughout.
Regarding `O=C(C=C(O)CCc1ccc(O)cc1)CCc1ccc(O)cc1` [Compound 63, 5-Hydroxy-1,7-bis(4-hydroxyphenyl)hept-4-en-3-one], the figures for the activation at 0.5 µM in assay [2] (setting [6]) and in assay [2] (setting [7]) were 5 to 50% and 50 to 100%, respectively.
The like results for `O=C(C=Cc1ccc(O)cc1)C1CCCC(=Cc2ccc(O)cc2)C1=O` (centres unmarked) [Compound 55, 2-(4-Hydroxybenzylidene)-6-(3-(4-hydroxyphenyl)acryloyl)-cyclohexanone] were, in that order, 5 to 50% and 5 to 50%.
For the compound `COc1cc(C=CC(=O)C=C(O)C=Cc2ccc(O)c(OC)c2)ccc1O` [Compound 38, 1,7-Bis(4-hydroxy-3-methoxyphenyl)-5-hydroxy-hepta-1,4,6-trien-3-one], the activation at 0.5 µM in assay [2] (setting [6]) is 5 to 50%; in assay [2] (setting [7]) it was more than 100%. Further, the “robust mRNA up-regulation of VDR or ALP” value in assay [3] is reported as “not observed”.
Take `COc1ccc(C=CC(=O)C=C(O)C=Cc2ccc(OC)c(O)c2)cc1O` [Compound 48, 5-Hydroxy-1,7-bis-(3-hydroxy-4-methoxyphenyl)-hepta-1,4,6-trien-3-one]: the activation at 0.5 µM in assay [2] (setting [6]) was more than 100%; in assay [2] (setting [7]), less than 5%.
In the case of `COc1cc(C=CC(=O)C2CCCC(=Cc3ccc(OC(=O)C(N)CCCCN)c(OC)c3)C2=O)ccc1OC(=O)C(N)CCCCN` (centres unmarked) [Compound 80, 4-(3-(3-(4-(2,6-diaminohexanoyloxy)-3-methoxybenzylidene)-2-oxocyclohexyl)-3-oxoprop-1-enyl)-2-methoxyphenyl bis(2,6-diaminohexanoate)], the “ALP activity −matrix” value in assay [2] (setting [6]) is reported as “− (<5%)”. In addition, the “ALP activity +matrix” value in assay [2] (setting [7]) is “+ (5-50%)”.
For the compound `COc1ccc(N[C@@H]2C[C@H](C)Nc3ccc(OC)cc32)cc1` (relative stereo) [Compound 11, cis-2-methyl-6-methoxy-N-(p-methoxyphenyl)-1,2,3,4-tetrahydroquinolin-4-amine], the activation at 0.5 µM in assay [2] (setting [4]) is less than 5%; in assay [2] (setting [5]), 50 to 100%.
`COc1cc(O)ccc1C=CC(=O)C=C(O)C=Cc1ccc(O)cc1OC` [Compound 49, 5-Hydroxy-1,7-bis-(4-hydroxy-2-methoxyphenyl)-hepta-1,4,6-trien-3-one]: the activation at 0.5 µM is 50 to 100% in assay [2] (setting [6]) and less than 5% in assay [2] (setting [7]).
`COc1ccc(C(=O)N2c3ccc(F)cc3[C@@H](Nc3ccc(F)cc3)C[C@@H]2C)cc1` (relative stereo) [Compound 26, trans-1-(p-methoxybenzoyl)-2-methyl-6-fluoro-N-(p-fluorophenyl)-1,2,3,4-tetrahydroquinolin-4-amine]: the activation at 0.5 µM is less than 5% in assay [2] (setting [4]) and 50 to 100% in assay [2] (setting [5]).
Regarding `C[C@H]1C[C@H](Nc2ccccc2)c2ccccc2N1` (relative stereo) [Compound 8, trans-2-methyl-N-phenyl-1,2,3,4-tetrahydroquinolin-4-amine], the activation at 0.5 µM in assay [2] (setting [4]) and in assay [2] (setting [5]) was 5 to 50% throughout.
